Experimental data reported in patent US20220330549A1, “USE OF N-BENZYLBENZAMIDE-BASED COMPOUND AS HERBICIDE” (Northwest A&F University, priority 2020, published 2022).

How the values were obtained:
Format in all cases: in vivo
Amaranthus retroflexus [1] = assay: Field test for weed control in a corn field; conditions: 150 g a.i./ha, 30 days after treatment
Method: (§1) The weed control efficacy field test was performed in a corn field with some of the N-benzylbenzamide-based compounds of general formula I or II with reference to the method of GB/T 17980.42-2000. […] Spray treatments were performed in the stage where 2 leaves to 5 leaves were grown for the corns after the sowing. Representative compounds in the examples were used to prepare emulsifiable concentrates (10%), and spray treatments were performed with the concentrates in water at a dosage of 150 g(a.i.)/ha, and repeated 4 times for each treatment, and the area was 20 m^2. Oil dispersion with 25% of mesotrione was used as a control agent and applied at a dosage of 150 g(a.i.)/h. […] The herbicidal activities of the agents were evaluated on a scale of 1-9 levels according to the symptoms and severity of damage to the test weeds.
(§2) Level 2: equivalent to 0 to 2.5% of the weed in the blank control area;
(§3) Level 3: equivalent to 2.6 to 5% of the weed in the blank control area;
(§4) Level 4: equivalent to 5.1 to 10% of the weed in the blank control area;
(§5) Level 5: equivalent to 10.1 to 15% of the weed in the blank control area;
(§6) Level 6: equivalent to 15.1 to 25% of the weed in the blank control area;
(§7) Level 7: equivalent to 25.1 to 35% of the weed in the blank control area;
(§8) Level 8: equivalent to 35.1 to 67.5% of the weed in the blank control area; and
(§9) Level 9: equivalent to 67.6 to 100% of the weed in the blank control area.

Digitaria sanguinalis [2] = assay: Field test for weed control in a corn field; conditions: 150 g a.i./ha, after treatment
Method: as §1, §2, §3, §4, §5, §6, §7, §8, §9

Acalypha australis = assay: Field test for weed control in a corn field; conditions: 150 g a.i./ha, after treatment
Method: as §1, §2, §3, §4, §5, §6, §7, §8, §9

green bristlegrass [3] = assay: Field test for weed control in a corn field; conditions: 150 g a.i./ha, after treatment
Method: as §1, §2, §3, §4, §5, §6, §7, §8, §9

nutgrass flatsedge = assay: Field test for weed control in a corn field; conditions: 150 g a.i./ha, after treatment
Method: as §1, §2, §3, §4, §5, §6, §7, §8, §9

Barnyard grass [4] = assay: Field test for weed control in a corn field; conditions: 150 g a.i./ha, 30 days after treatment
Method: as §1, §2, §3, §4, §5, §6, §7, §8, §9

Solanum nigrum = assay: Field test for weed control in a corn field; conditions: 150 g a.i./ha, 30 days after treatment
Method: as §1, §2, §3, §4, §5, §6, §7, §8, §9

Portulaca oleracea = assay: Field test for weed control in a corn field; conditions: 150 g a.i./ha, after treatment
Method: as §1, §2, §3, §4, §5, §6, §7, §8, §9

Chenopodium album = assay: Field test for weed control in a corn field; conditions: 150 g a.i./ha, after treatment
Method: as §1, §2, §3, §4, §5, §6, §7, §8, §9

Convolvulus arvensis = assay: Field test for weed control in a corn field; conditions: 150 g a.i./ha, after treatment
Method: as §1, §2, §3, §4, §5, §6, §7, §8, §9

goosegrass = assay: Field test for weed control in a corn field; conditions: 150 g a.i./ha, after treatment
Method: as §1, §2, §3, §4, §5, §6, §7, §8, §9

Amaranthus retroflexus [5] = assay: Herbicidal activity test for indoor pre-emergence soil treatment; design: key: 1-9 levels; higher = more weed remaining vs blank control; conditions: 150 g a.i./ha, visual inspection 21 days after treatment
Method: (§10) The herbicidal activity test for indoor pre-emergence soil treatment was performed with some of the N-benzylbenzamide-based compounds of general formula I or II with reference to the method of NY/T 1155.3-2006. Neutral sandy loam soil having an organic content of ≤2% was added to fill ⅘ of the pot, and the soil was completely moistened by infiltrating irrigation from the bottom of the pot. The seeds of the test weed were evenly spread on the soil surface, and then covered by 0.5 cm to 2.0 cm of soil depending on the seed size. Representative compounds in the examples were used to prepare emulsifiable concentrates (10%), and spray treatments to the soil were performed 24 hours after the sowing with the test agents diluted with water, at a spraying dosage of 150 g(a.i.)/ha. Then, the results were investigated by visual inspection 21 days after the treatments. The herbicidal activity of the agent was evaluated on a scale of 1-9 levels according to the symptoms and severity of damage to the test weeds.
as §2, §3, §4, §5, §6, §7, §8, §9

Digitaria sanguinalis [6] = assay: as above; design: key: 1-9 levels; higher = more weed remaining vs blank control; conditions: 150 g a.i./ha, visual inspection 21 days after treatment
Method: as §10, §2, §3, §4, §5, §6, §7, §8, §9

green bristlegrass [7] = assay: as above; design: key: level 1-9; higher = more weed remaining vs blank control; conditions: 150 g a.i./ha, visual inspection 21 days after treatment
Method: as §10, §2, §3, §4, §5, §6, §7, §8, §9

Piemarker [8] = assay: as above; design: key: level 1-9; higher = more weed remaining vs blank control; conditions: 150 g a.i./ha, visual inspection 21 days after treatment
Method: as §10, §2, §3, §4, §5, §6, §7, §8, §9

Barnyard grass [9] = assay: as above; design: key: level 1-9; higher = more weed remaining vs blank control; conditions: 150 g a.i./ha, visual inspection 21 days after treatment
Method: as §10, §2, §3, §4, §5, §6, §7, §8, §9

Humulus scandens [10] = assay: as above; conditions: 150 g a.i./ha, visual inspection 21 days after treatment
Method: as §10, §2, §3, §4, §5, §6, §7, §8, §9

Amaranthus retroflexus [11] = assay: Herbicidal activity test for indoor post-emergence spraying on stems and leaves; design: key: grade level by weed remaining vs blank control, e.g. 5 = 10.1-15%; conditions: 150 g a.i./ha, visual inspection 21 days after treatment
Method: (§11) The post-emergence herbicidal activity test was performed with some of the N-benzylbenzamide-based compounds of general formula I or II with reference to the method of NY/T 1155.4-2006. […] After the sowing, the weed was moved to a greenhouse for regular cultivation. […] Then, the results were investigated by visual inspection 21 days after the treatments. […] Level 5: equivalent to 10.1 to 15% of the weed in the blank control area; Level 6: equivalent to 15.1 to 25% of the weed in the blank control area; Level 7: equivalent to 25.1 to 35% of the weed in the blank control area; Level 8: equivalent to 35.1 to 67.5% of the weed in the blank control area; and […]

Digitaria sanguinalis [12] = assay: as above; design: key: grade level by weed remaining vs blank control, e.g. 5 = 10.1-15%; conditions: 150 g a.i./ha, visual inspection 21 days after treatment
Method: as §11

green bristlegrass [13] = assay: as above; design: key: grade level by weed remaining vs blank control, e.g. 5 = 10.1-15%; conditions: 150 g a.i./ha, visual inspection 21 days after treatment
Method: as §11

Piemarker [14] = assay: as above; design: key: grade level by weed remaining vs blank control, e.g. 5 = 10.1-15%; conditions: 150 g a.i./ha, visual inspection 21 days after treatment
Method: as §11

Barnyard grass [15] = assay: as above; design: key: grade level by weed remaining vs blank control, e.g. 5 = 10.1-15%; conditions: 150 g a.i./ha, visual inspection 21 days after treatment
Method: as §11

Humulus scandens [16] = assay: as above; design: key: grade level by weed remaining vs blank control, e.g. 5 = 10.1-15%; conditions: 150 g a.i./ha, visual inspection 21 days after treatment
Method: as §11

Cyperaceae = assay: Post-emergence herbicidal activity test in a paddy field; design: key: level scale; higher level = more weed left vs blank control; conditions: 150 g a.i./ha (penoxsulam control 250 g(a.i.)/h)
Method: (§12) The post-emergence herbicidal activity test was performed in a paddy field with some of the N-benzylbenzamide-based compounds of general formula I or II with reference to the method of GB/T 17980.40-2000. […] Spray treatments were performed in the stage where 4 leaves to 5 leaves were grown for the rice seedlings which was about 1 month after the sowing. Representative compounds in the examples were used to prepare emulsifiable concentrates (10%), and spray treatments were performed with the concentrates in water at a dosage of 150 g(a.i.)/ha, and repeated 4 times for each treatment, and the area was 50 m^2. 25 g/L of penoxsulam suspension was used as a control agent and applied at a dosage of 250 g(a.i.)/h. The results were investigated by a value estimating survey method 15 days and 30 days after the treatments. The relative weed population quantities were estimated by comparing each agent treated area with an adjacent blank control area, and the results of which were investigated with the following grading standard method using the overall coverage of the weed population as an indicator.
as §2, §3, §4, §5, §6, §7, §8, §9

Gramineae = assay: as above; design: key: level scale; higher level = more weed left vs blank control; conditions: 150 g a.i./ha (penoxsulam control 250 g(a.i.)/h)
Method: as §12, §2, §3, §4, §5, §6, §7, §8, §9

Broadleaf weed = assay: as above; design: key: level scale; higher level = more weed left vs blank control; conditions: 150 g a.i./ha (penoxsulam control 250 g(a.i.)/h)
Method: as §12, §2, §3, §4, §5, §6, §7, §8, §9

SMILES: COc1ccccc1C(=O)NCc1cc(F)cc(Cl)c1 [Compound A07, N-(3-chloro-5-fluorobenzyl)-2-methoxybenzamide]
- Post-emergence weed control effect, Amaranthus retroflexus (Amaranthus retroflexus [1]): 1
- Post-emergence weed control effect, Digitaria sanguinalis (Digitaria sanguinalis [2]): 2 (equivalent to 0 to 2.5% of the weed in the blank control area)
- Post-emergence weed control effect, Acalypha australis (Acalypha australis): 2 (equivalent to 0 to 2.5% of the weed in the blank control area)
- Post-emergence weed control effect, Green bristlegrass (green bristlegrass [3]): 2 (equivalent to 0 to 2.5% of the weed in the blank control area)
- Post-emergence weed control effect, Nutgrass flatsedge (nutgrass flatsedge): 2 (equivalent to 0 to 2.5% of the weed in the blank control area)
- Post-emergence weed control effect, Barnyard grass (Barnyard grass [4]): 2 (equivalent to 0 to 2.5% of the weed in the blank control area)
- Post-emergence weed control effect, Solanum nigrum (Solanum nigrum): 2 (equivalent to 0 to 2.5% of the weed in the blank control area)
- Post-emergence weed control effect, Portulaca oleracea (Portulaca oleracea): 1
- Post-emergence weed control effect, Chenopodium album (Chenopodium album): 1
- Post-emergence weed control effect, Convolvulus arvensis (Convolvulus arvensis): 1
- Post-emergence weed control effect, Goose grass (goosegrass): 2 (equivalent to 0 to 2.5% of the weed in the blank control area)
- Herbicidal Activity Amaranthus retroflexus (Amaranthus retroflexus [5]): 1
- Herbicidal Activity Digitaria sanguinalis (Digitaria sanguinalis [6]): 1
- Herbicidal Activity Green bristlegrass (green bristlegrass [7]): 2 (equivalent to 0 to 2.5% of the weed in the blank control area)
- Herbicidal Activity Piemarker (Piemarker [8]): 1
- Herbicidal Activity Barnyard grass (Barnyard grass [9]): 1
- Herbicidal Activity Humulus scandens (Humulus scandens [10]): 3 (equivalent to 2.6 to 5% of the weed in the blank control area)
- Herbicidal Activity Amaranthus retroflexus (Amaranthus retroflexus [11]): 1
- Herbicidal Activity Digitaria sanguinalis (Digitaria sanguinalis [12]): 1
- Herbicidal Activity Green bristlegrass (green bristlegrass [13]): 2 (equivalent to 0 to 2.5% of the weed in the blank control area)
- Herbicidal Activity Piemarker (Piemarker [14]): 1
- Herbicidal Activity Barnyard grass (Barnyard grass [15]): 1
- Herbicidal Activity Humulus scandens (Humulus scandens [16]): 1
- Herbicidal activity 15 days after treatment Cyperaceae (Cyperaceae; 15 days after treatment): 1
- Herbicidal activity 30 days after treatment Cyperaceae (Cyperaceae; 30 days after treatment): 2 (equivalent to 0 to 2.5% of the weed in the blank control area)
- Herbicidal activity 15 days after treatment Gramineae (Gramineae; 15 days after treatment): 2 (equivalent to 0 to 2.5% of the weed in the blank control area)
- Herbicidal activity 30 days after treatment Gramineae (Gramineae; 30 days after treatment): 2 (equivalent to 0 to 2.5% of the weed in the blank control area)
- Herbicidal activity 15 days after treatment Broadleaf weed (Broadleaf weed; 15 days after treatment): 2 (equivalent to 0 to 2.5% of the weed in the blank control area)
- Herbicidal activity 30 days after treatment Broadleaf weed (Broadleaf weed; 30 days after treatment): 1
